According to patent US20250034170A1, “SMALL MOLECULE MODULATORS OF GLUCOCEREBROSIDASE ACTIVITY AND USES THEREOF” (Vanqua Bio, Inc., priority 2021, published 2025):

molecular target: T1, GCase (Homo sapiens, UniProt P04062); assay: activation of GCase in a live cell PFB assay in HELA cells; type: cell-based; conditions: EC50 given as range classes
T1 construct: endogenous in cells; host or cells: HeLa cells
T1 sequence (P04062 40-536): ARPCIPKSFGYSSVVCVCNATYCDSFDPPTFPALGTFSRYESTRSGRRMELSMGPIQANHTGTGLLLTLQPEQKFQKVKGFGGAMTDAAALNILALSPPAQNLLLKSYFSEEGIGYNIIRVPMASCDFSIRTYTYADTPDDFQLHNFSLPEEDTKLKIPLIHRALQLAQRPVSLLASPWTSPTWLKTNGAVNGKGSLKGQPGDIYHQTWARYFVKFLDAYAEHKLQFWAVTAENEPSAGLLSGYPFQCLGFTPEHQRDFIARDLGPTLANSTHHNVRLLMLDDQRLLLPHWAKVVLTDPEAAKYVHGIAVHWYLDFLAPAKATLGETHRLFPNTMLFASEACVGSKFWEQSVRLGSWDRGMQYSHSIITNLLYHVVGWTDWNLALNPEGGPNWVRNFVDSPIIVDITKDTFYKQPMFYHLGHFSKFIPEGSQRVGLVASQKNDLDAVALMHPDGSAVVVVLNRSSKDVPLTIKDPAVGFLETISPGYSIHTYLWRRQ
Procedure: Exemplary compounds were evaluated for activation of GCase in a live cell PFB assay in HELA cells (essentially as described in Ysselstein et al., “LRRK2 kinase activity regulates lysosomal glucocerebrosidase in neurons derived from Parkinson's disease patients” Nature Communications (2019) 10:5570). […] EC50 ranges: A: <10 μM; B: >10-50 μM; C: >50-100 μM; D: >100 μM.

Row | SMILES | EC50
1 | Cc1nc(N2CCC3(C2)CN(c2cnc4c(C)nn(CC(F)F)c4n2)C3)cc(C(F)(F)F)n1 [Cmpd 578] | 10 to 50 µM
2 | Cc1nc(N2CCC3(CC2)CCN(c2cnc4cnn(CC(F)F)c4n2)C3)cc(C(F)(F)F)n1 [Cmpd 579] | 10 to 50 µM
3 | Cc1nc(N2CCC3(CC2)CCN(c2cnc4cnn(CC(F)(F)F)c4n2)C3)cc(C(F)(F)F)n1 [Cmpd 580] | 10 to 50 µM
4 | Cc1nc(N2CCC3(CC2)CCN(c2ncc4cnn(CC(F)F)c4n2)C3)cc(C(F)(F)F)n1 [Cmpd 581] | 10 to 50 µM
5 | Cc1nc(N2CCC3(CC2)CCN(c2cnc4c(C)nn(CC(F)F)c4n2)C3)cc(C(F)(F)F)n1 [Cmpd 582] | 10 to 50 µM
6 | Cc1nc(N2CCC3(CC2)CCN(c2cnc4cnn(C5COC5)c4n2)C3)cc(C(F)(F)F)n1 [Cmpd 583] | > 100 µM
7 | Cc1nc(N2CCC3(CC2)CN(c2cnc4c(C)nn(CC(F)F)c4n2)C3)cc(C(F)(F)F)n1 [Cmpd 585] | < 10 µM
8 | Cc1nc(N2CCC3(CC2)CN(c2ncc4cnn(CC(F)F)c4n2)C3)cc(C(F)(F)F)n1 [Cmpd 586] | 10 to 50 µM
9 | Cc1nc(N2CCC3(CC2)CN(c2cnc4cnn(CC(F)(F)F)c4n2)C3)cc(C(F)(F)F)n1 [Cmpd 587] | 10 to 50 µM
10 | Cc1nc(N2CCC3(CC2)CN(c2cnc4cnn(CC(F)F)c4n2)C3)cc(C(F)(F)F)n1 [Cmpd 588] | < 10 µM

Now from value to compound:

Row | EC50 | SMILES
11 | 10 to 50 µM | Cc1nc(N2CCC3(CC2)CN(c2cnc4cnn(C5COC5)c4n2)C3)cc(C(F)(F)F)n1 [Cmpd 584]
12 | 10 to 50 µM | Cc1nc(N2CC3(CCN(c4ncc5cnn(C6COC6)c5n4)C3)C2)cc(C(F)(F)F)n1 [Cmpd 589]
13 | 10 to 50 µM | Cc1cc(N2CC3(CCN(c4ncc5cnn(C6COC6)c5n4)C3)C2)nc(C(F)(F)F)n1 [Cmpd 590]

same assay, conditions: activation of GCase, EC50 ranges

Row | SMILES | EC50
14 | Cc1nc(N2CCC3(CCN(c4cnc5cnn(CC(F)F)c5n4)C3)C2)cc(C(F)(F)F)n1 (stereo not shown) [Cmpd 521] | < 10 µM
15 | Cc1nc(N2CC3(CCN(c4cnc5cnn(CC(F)F)c5n4)CC3)C2)cc(C(F)(F)F)n1 [Cmpd 522] | < 10 µM
16 | Cc1nc(N2CCC3(CCN(c4cnc5cnn(CC(F)F)c5n4)C3=O)C2)cc(C(F)(F)F)n1 (stereo not shown) [Cmpd 523] | < 10 µM
17 | Cc1nc(N2CC3(CCN(c4cnc5cnn(CC(F)F)c5n4)C3=O)C2)cc(C(F)(F)F)n1 [Cmpd 524] | < 10 µM
18 | Cc1nc(N2CC3(CC(=O)N(c4cnc5cnn(CC(F)F)c5n4)C3)C2)cc(C(F)(F)F)n1 [Cmpd 525] | < 10 µM
19 | FC(F)Cn1ncc2ncc(N3CCC4(CC3)CN(c3cnc(C(F)(F)F)nc3)C4)nc21 [Cmpd 526] | < 10 µM
20 | Cc1cc(N2CCC3(CCN(c4cnc5cnn(CC(F)F)c5n4)CC3)C2)nc(C(F)(F)F)n1 [Cmpd 528] | < 10 µM
21 | Cc1nn(CC(F)F)c2nc(N3CCC4(CCN(c5cnc(C(F)(F)F)nc5)C4)C3)cnc12 (stereo not shown) [Cmpd 530] | < 10 µM
22 | FC(F)(F)Cn1ncc2ncc(N3CCC4(CCN(c5cnc(C(F)(F)F)nc5)C4)C3)nc21 (stereo not shown) [Cmpd 531] | < 10 µM
23 | FC(F)(F)c1ncc(N2CCC3(CCN(c4cncc(-c5nncs5)n4)C3)C2)cn1 (stereo not shown) [Cmpd 532] | 10 to 50 µM
24 | FC(F)(F)c1ncc(N2CCC3(CCN(c4cnc5cnn(C6COC6)c5n4)C3)C2)cn1 (stereo not shown) [Cmpd 533] | < 10 µM
25 | Cc1nn(C2COC2)c2nc(N3CCC4(CCN(c5cnc(C(F)(F)F)nc5)C4)C3)ncc12 (stereo not shown) [Cmpd 536] | < 10 µM
26 | Cc1nc(N2CCC3(CCN(c4cncc(-c5nncs5)n4)C3)C2)cc(C(F)(F)F)n1 (stereo not shown) [Cmpd 539] | 10 to 50 µM
27 | Cc1nc(N2CCC3(CCN(c4ncc5cnn(CC(F)F)c5n4)C3)C2)cc(C(F)(F)F)n1 (stereo not shown) [Cmpd 540] | 10 to 50 µM
28 | Cc1nc(N2CCC3(CCN(c4ncc5c(C)nn(CC(F)F)c5n4)C3)C2)cc(C(F)(F)F)n1 (stereo not shown) [Cmpd 541] | < 10 µM
29 | Cc1nc(N2CCC3(CCN(c4cnc5cnn(C6COC6)c5n4)C3)C2)cc(C(F)(F)F)n1 (stereo not shown) [Cmpd 542] | < 10 µM
30 | Cc1nc(N2CCC3(CCN(c4ncc5c(C)nn(C6COC6)c5n4)C3)C2)cc(C(F)(F)F)n1 (stereo not shown) [Cmpd 544] | 10 to 50 µM
31 | Cc1nc(N2CCC3(CCN(c4ncc5cnn(C6COC6)c5n4)C3)C2)cc(C(F)(F)F)n1 (stereo not shown) [Cmpd 545] | > 100 µM
32 | FC(F)Cn1ncc2cnc(N3CCC4(CCN(c5cnc(C(F)(F)F)nc5)C4)C3)nc21 (stereo not shown) [Cmpd 546] | 10 to 50 µM

Row | SMILES | EC50
33 | Cc1nn(CC(F)F)c2nc(N3CCC4(CCN(c5cnc(C(F)(F)F)nc5)C4)C3)ncc12 (stereo not shown) [Cmpd 547] | 10 to 50 µM
34 | Cc1nc(N2CCC3(C2)CN(c2cnc4cnn(CC(F)(F)F)c4n2)C3)cc(C(F)(F)F)n1 [Cmpd 552] | < 10 µM
35 | Cc1nc(N2CCC3(C2)CN(c2ncc4cnn(CC(F)F)c4n2)C3)cc(C(F)(F)F)n1 [Cmpd 553] | 10 to 50 µM
36 | Cc1nc(N2CCC3(C2)CN(c2ncc4cnn(CC(F)(F)F)c4n2)C3)cc(C(F)(F)F)n1 [Cmpd 554] | 10 to 50 µM
37 | Cc1nc(N2CCC3(C2)CN(c2cnc4cnn(C5COC5)c4n2)C3)cc(C(F)(F)F)n1 [Cmpd 555] | < 10 µM
38 | Cc1nc(N2CCC3(C2)CN(c2ncc4cnn(C5COC5)c4n2)C3)cc(C(F)(F)F)n1 [Cmpd 557] | 10 to 50 µM
39 | Cc1nc(N2CCC3(C2)CN(c2ncc4c(C)nn(C5COC5)c4n2)C3)cc(C(F)(F)F)n1 [Cmpd 558] | < 10 µM
40 | CC(C)c1ncc(N2CC3(CCN(c4cnc5cnn(CC(F)F)c5n4)C3)C2)cn1 [Cmpd 559] | 10 to 50 µM
41 | FC(F)Cn1ncc2ncc(N3CCC4(CN(c5cnc(C6CC6)nc5)C4)C3)nc21 [Cmpd 560] | 10 to 50 µM
42 | Cc1ncc(N2CC3(CCN(c4cnc5cnn(CC(F)F)c5n4)CC3)C2)c(C(F)(F)F)n1 [Cmpd 561] | 10 to 50 µM
43 | Cc1nc(N2CC3(CCN(c4ncc5cnn(C6COC6)c5n4)CC3)C2)cc(C(F)(F)F)n1 [Cmpd 562] | 10 to 50 µM
44 | Cc1nc(N2CC3(CCN(c4cnc5cnn(C6COC6)c5n4)CC3)C2)cc(C(F)(F)F)n1 [Cmpd 563] | > 100 µM
45 | Cc1nc(N2CC3(CCN(c4ncc5cnn(CC(F)(F)F)c5n4)CC3)C2)cc(C(F)(F)F)n1 [Cmpd 566] | < 10 µM
46 | Cc1nc(N2CC3(CCN(c4cnc5c(C)nn(CC(F)F)c5n4)CC3)C2)cc(C(F)(F)F)n1 [Cmpd 568] | < 10 µM
47 | Cc1nc(N2CC3(CCN(c4ncc5c(C)nn(C6COC6)c5n4)CC3)C2)cc(C(F)(F)F)n1 [Cmpd 570] | 10 to 50 µM
48 | Cc1nc(N2CCC3(CCN(c4ncc5cnn(C6COC6)c5n4)CC3)C2)cc(C(F)(F)F)n1 [Cmpd 573] | > 100 µM
49 | Cc1nc(N2CCC3(CCN(c4cnc5cnn(C6COC6)c5n4)CC3)C2)cc(C(F)(F)F)n1 [Cmpd 574] | 10 to 50 µM
50 | Cc1nc(N2CCC3(CCN(c4ncc5c(C)nn(CC(F)F)c5n4)CC3)C2)cc(C(F)(F)F)n1 [Cmpd 576] | 10 to 50 µM
51 | Cc1nc(N2CCC3(C2)CN(c2ncc4c(C)nn(CC(F)F)c4n2)C3)cc(C(F)(F)F)n1 [Cmpd 577] | 10 to 50 µM

Other lines, results leading:

Row | EC50 | SMILES
52 | < 10 µM | Cc1cc(N2CC3(CCN(c4cnc5cnn(CC(F)F)c5n4)CC3)C2)nc(C(F)(F)F)n1 [Cmpd 527]
53 | < 10 µM | Cc1cc(N2CC3(CCN(c4cnc5cnn(CC(F)F)c5n4)CC3)CC2=O)nc(C(F)(F)F)n1 [Cmpd 529]
54 | < 10 µM | Cc1nn(C2COC2)c2nc(N3CCC4(CCN(c5cnc(C(F)(F)F)nc5)C4)C3)cnc12 (stereo not shown) [Cmpd 534]
55 | < 10 µM | FC(F)(F)c1ncc(N2CCC3(CCN(c4ncc5cnn(C6COC6)c5n4)C3)C2)cn1 (stereo not shown) [Cmpd 535]
56 | > 100 µM | Cc1nc(N2CCC3(CCN(c4cnc5c(C)nn(CC(F)F)c5n4)C3)C2)cc(C(F)(F)F)n1 (stereo not shown) [Cmpd 537]
57 | 10 to 50 µM | Cc1nc(N2CCC3(CCN(c4cnc5cnn(CC(F)(F)F)c5n4)C3)C2)cc(C(F)(F)F)n1 (stereo not shown) [Cmpd 538]
58 | 10 to 50 µM | Cc1nc(N2CCC3(CCN(c4cnc5c(C)nn(C6COC6)c5n4)C3)C2)cc(C(F)(F)F)n1 (stereo not shown) [Cmpd 543]
59 | > 100 µM | Cc1nc(N2CCC3(CCN(c4ncc5cnn(CC(F)(F)F)c5n4)C3)C2)cc(C(F)(F)F)n1 (stereo not shown) [Cmpd 548]
60 | > 100 µM | Cc1nc(N2CCC3(CCN(c4cnc5c(C)nn(C6COC6)c5n4)CC3)C2)cc(C(F)(F)F)n1 [Cmpd 549]
61 | > 100 µM | Cc1nc(N2CCC3(CCN(c4ncc5c(C)nn(C6COC6)c5n4)CC3)C2)cc(C(F)(F)F)n1 [Cmpd 550]
62 | < 10 µM | Cc1nc(N2CCC3(C2)CN(c2cnc4cnn(CC(F)F)c4n2)C3)cc(C(F)(F)F)n1 [Cmpd 551]
63 | 10 to 50 µM | Cc1nc(N2CCC3(C2)CN(c2cnc4c(C)nn(C5COC5)c4n2)C3)cc(C(F)(F)F)n1 [Cmpd 556]
64 | < 10 µM | Cc1nc(N2CC3(CCN(c4ncc5cnn(CC(F)F)c5n4)CC3)C2)cc(C(F)(F)F)n1 [Cmpd 564]
65 | 10 to 50 µM | Cc1nc(N2CC3(CCN(c4cnc5c(C)nn(C6COC6)c5n4)CC3)C2)cc(C(F)(F)F)n1 [Cmpd 565]
66 | < 10 µM | Cc1nc(N2CC3(CCN(c4cnc5cnn(CC(F)(F)F)c5n4)CC3)C2)cc(C(F)(F)F)n1 [Cmpd 567]
67 | 10 to 50 µM | Cc1nc(N2CC3(CCN(c4ncc5c(C)nn(CC(F)F)c5n4)CC3)C2)cc(C(F)(F)F)n1 [Cmpd 569]
68 | 10 to 50 µM | Cc1nc(N2CCC3(CCN(c4cnc5cnn(CC(F)(F)F)c5n4)CC3)C2)cc(C(F)(F)F)n1 [Cmpd 571]
69 | < 10 µM | Cc1nc(N2CCC3(CCN(c4ncc5cnn(CC(F)(F)F)c5n4)CC3)C2)cc(C(F)(F)F)n1 [Cmpd 572]
70 | > 100 µM | Cc1nc(N2CCC3(CCN(c4cnc5c(C)nn(CC(F)F)c5n4)CC3)C2)cc(C(F)(F)F)n1 [Cmpd 575]
